Laboratory results taken from patent publication US8440835B2, “Environmentally sensitive fluorophores” (Massachusetts Institute of Technology, priority 2007, dated 2013).
Values belong to the compound of their own block, whether it stands above or below them.

Experiments:
Assay type in all cases: physicochemical
[1] = Hydrolysis of the imide ring followed by fluorescence in PBS buffer over 24 hours
Procedure: The 4DMAP and 6DMN fluorophores are likely susceptible to the gradual hydrolysis of the imide ring system in the pH range of 7 to 8. The origin of this reactivity can be attributed to the bond angle strain of the five-membered imide ring system that is released during the ring opening process. […] This is apparent in an experiment performed on both the KR4DMAP and KR4DMN peptides using a PerkinElmer HTS7000 plate reader. Fluorescence of the two peptides was measured at their respective emission wavelengths in PBS buffer over a 24 hour period at 28° C.
The fluorophore remained intact throughout the 24 hr duration. This difference between the stability of 4DMN and that of 4DMAP is most evident at pH 8 where the rate of hydrolysis for 4DMAP is greatest (FIG. 7).

[2] = Fluorescence spectra of the KR peptide series in dioxane vs. TBS buffer; details: for fluorescence intensity ratio (Idioxane/ITBS), in words: at the wavelength of maximum emission intensity in dioxane
Procedure: This example illustrates investigations into the biological applications of the dimethylamino phthalimide series of environment sensitive fluorophores (FIGS. 3C-3E), as compared to both dansyl and NBD. A comparative study was performed on the fluorophores of FIG. 3 by synthetically preparing a series of lysine-arginine rich peptides (KR peptide series) such that each peptide in the series contained one of the five fluorophores appended to the side-chain of the residue at position 4 in the peptide sequence (FIG. 4), SEQ ID NOs: 5-9. The fluorescence spectra of the KR peptides were then measured at 5 micromolar in both TBS buffer (pH 7.4) and dioxane (containing 5 mM 18-crown-6). These conditions were selected to determine the magnitude of the fluorescence change for each fluorophore under an ideal set of conditions. […] An advantage of this property is a much improved signal-to-noise ratio for experimental measurements made in the context of real biological systems. […] While it is often possible to optimize the maximum fluorescence output by experimenting with the placement of the selected fluorophore on the protein of interest, the intrinsic fluorescence of the fluorophore in aqueous environments is often a limiting factor when optimizing the fluorescent response.

[3] = Resistance of the 4DMN side chain to solid-phase peptide synthesis conditions; details: 0.12 M diisopropylethylamine; 20% piperidine; 95% TFA
Procedure: The peptide synthesis was carried out using standard Fmoc-based solid phase peptide synthesis (SPPS) protocols on a 0.05 to 0.1 mmol scale using a 0.21 mmol/g loading PAL-PEG-PS solid support. Amino acids were coupled in three-fold excess using a mixture of 0.2 M HBTU/0.2 M HOBt in DMF as activating agents. Each amino acid was activated for two minutes with the HBTU/HOBt mixture (1 eq.) and diisopropylethylamine (DIPEA), 0.195 M in DMF (1.5 eq.) before being added to the resin. Peptide coupling was monitored using the 2,4,6-trinitrobenzenesulphonic acid (TNBS) test. Amino acids were used as protected Fmoc-amino acids with the standard side chain protecting groups. High-performance liquid chromatography (HPLC) was performed using a Waters 600E HPLC fitted with a Waters 600 automated control module and a Waters 2487 dual wavelength absorbance detector recording at 228 and 280 nm. For analytical HPLC, a Beckman Ultrasphere C18, 5 micrometer, 4.6×150 mm reverse-phase column was used. For preparative separations, a YMC-pack, C18, 250×20 mm reversed phase column was used. The standard gradient for analytical and preparative HPLC used was 93:7 to 5:95 over 35 minutes (water:acetonitrile, 0.1% TFA).

[4] = Exposure to standard Fmoc deprotection protocol (20% 4-methylpiperidine in DMF) on solid support, analysis by MALDI-MS, HPLC, ESI-MS
Procedure: This example illustrates the incorporation of 4DMAP and 6DMN into peptides by coupling an anhydride precursor of either fluorophore to a free amine on a fully synthesized peptide in the last step prior to cleaving the peptide from the solid support. […] This is evident in the experiment shown in FIG. 9 where the KR peptides of 4DMN and 6DMN were both exposed to a standard Fmoc deprotection protocol while still on solid support. Roughly 20 mg of resin for each peptide was transferred to a small 2 mL spin tube and treated at room temperature with a solution of 20% 4-methylpiperidine in DMF (3×5 min). The peptides were then cleaved from the resin and analyzed by MALDI-MS, HPLC, and ESI-MS.
The masses of these two peaks determined by ESI-MS were identical and confirmed to be that of the 4-methylpiperidine adduct. It is believed that the occurrence of the two byproduct peaks, instead of one, is due to varying retention times for the two possible isomers formed depending on which of the imide carbonyls are attacked by the base. […] The HPLC and ESI-MS analysis also confirmed that no reaction occurred. The 4DMNA amino acid appears to be unreactive under these conditions. Furthermore, it is worth emphasizing that the 4DMN chromophore was exposed to this same treatment twice previously during the preparation of the KR4DMN peptide using the 4DMNA Fmoc building-block.

Compound: CN(C)c1ccc2c(c1)C(=O)NC2=O [4DMAP, 4-dimethylamino phthalimide, reference compound]
rate of hydrolysis ([1]; pH 8, PBS buffer, 28° C.): significantly enhanced
fluorescence intensity ratio (Idioxane/ITBS), in words [2]: greater than three orders of magnitude

Compound: CN(C)c1ccc2c3c(cccc13)C(=O)NC2=O [4DMN, 4-N,N-dimethylamino-1,8-naphthalimide]
hydrolysis of the imide ring system ([1]; pH range of 7 to 8): no such reactivity
fluorescence intensity ratio (Idioxane/ITBS), in words [2]: greater than three orders of magnitude
resistance to peptide synthesis conditions [3]: resistant

Compound: CN(C)c1ccc2c3c(cccc13)C(=O)N(CC(N)C(=O)O)C2=O (stereo not drawn) [4DMNA]
formation of 4-methylpiperidine adduct ([4]; 20% 4-methylpiperidine in DMF, 3×5 min, room temperature, on resin): unreactive

Compound: CN(C)c1ccc2cc3c(cc2c1)C(=O)NC3=O [6DMN, 6-N,N-dimethylamino-2,3-naphthalimide]
fluorescence intensity ratio (Idioxane/ITBS), in words [2]: greater than three orders of magnitude

The remaining lines, values ahead:

susceptibility to nucleophilic attack by bases like 4-methylpiperidine ([4]; use in preparation of various peptides): no susceptibility
Compound: CN(C)c1ccc2c3c(cccc13)C(=O)N(CC(NC(=O)OCC1c3ccccc3-c3ccccc31)C(=O)O)C2=O (stereo not drawn) [Fmoc-4DMNA, N-α-Fmoc-(4-N,N-dimethylamino-1,8-naphthalimido) alanine]

λexc ([2]; KR peptide series): below 350 nm
Compound: dansyl
